From patent publication US7238720B2, “Pharmaceutical use of N-carbamoylazole derivatives” (Eisai R & D Management Co. Ltd., priority 2001, dated 2007)

Molecular target: T1, DPP-IV, obtained from porcine kidneys (Sus scrofa, UniProt P22411)
T1 construct: DPP-IV, obtained from porcine kidneys; from tissue; host or cells: porcine kidney
Assay: Measurement of DPPIV inhibiting effects (Gly-Pro-p-nitroanilide, absorbance at 405 nm)
Format: biochemical
Conditions: porcine kidney DPP-IV 10 mU/mL, 20 min preincubation, Gly-Pro-p-nitroanilide 0.33 mM, pH 7.4
Protocol: Measurement of DPPIV Inhibiting Effects
DPP-IV, obtained from porcine kidneys, was dissolved in a reaction buffer solution (50 mM Tris-HCl, pH 7.4, 0.1% BSA) such that the concentration of DPP-IV was at 10 mU/mL. This solution (110 μl) was placed into test tubes, to which compounds to be tested were further added at a quantity of 15 μl and incubated at room temperature for 20 minutes. Twenty-five microliters of a solution in which Gly-Pro-p-nitroanilide was dissolved at 2 mM was added (final concentration, 0.33 mM) to start the enzymatic reaction. The reaction time was 20 minutes. The reaction was stopped by the addition of 25 μl of 1 N phosphoric acid.

T1 sequence (P22411 whole entry): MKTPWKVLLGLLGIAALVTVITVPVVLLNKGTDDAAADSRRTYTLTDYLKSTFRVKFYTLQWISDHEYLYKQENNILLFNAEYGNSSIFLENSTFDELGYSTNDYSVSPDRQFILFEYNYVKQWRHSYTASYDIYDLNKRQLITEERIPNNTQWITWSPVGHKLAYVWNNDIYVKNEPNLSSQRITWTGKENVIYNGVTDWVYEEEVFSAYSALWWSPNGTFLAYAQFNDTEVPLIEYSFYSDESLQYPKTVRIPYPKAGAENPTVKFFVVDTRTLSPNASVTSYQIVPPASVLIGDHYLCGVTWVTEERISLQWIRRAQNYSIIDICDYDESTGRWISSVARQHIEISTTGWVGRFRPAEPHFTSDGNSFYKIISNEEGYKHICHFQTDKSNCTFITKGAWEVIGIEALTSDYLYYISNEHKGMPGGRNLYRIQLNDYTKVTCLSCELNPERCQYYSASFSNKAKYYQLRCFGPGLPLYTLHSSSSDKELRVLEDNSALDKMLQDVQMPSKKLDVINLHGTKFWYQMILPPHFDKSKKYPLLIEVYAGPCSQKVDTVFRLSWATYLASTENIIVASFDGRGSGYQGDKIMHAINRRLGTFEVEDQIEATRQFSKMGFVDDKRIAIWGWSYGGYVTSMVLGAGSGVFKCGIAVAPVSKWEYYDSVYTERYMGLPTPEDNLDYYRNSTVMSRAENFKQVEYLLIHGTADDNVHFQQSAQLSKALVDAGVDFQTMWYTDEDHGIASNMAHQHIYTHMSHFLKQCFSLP

Compound	IC50 [nM]
Cc1cc(C)n(S(=O)(=O)c2ncn(C(=O)N(C)C)n2)n1 [Example 56, 3-(3,5-Dimethylpyrazol-1-yl)sulfonyl-1-dimethylcarbamoyl-1H-1,2,4-triazole]	101
CN(C)C(=O)n1cnc(S(=O)(=O)CC2CCCCC2)n1 [Example 17, 3-Cyclohexylmethylsulfonyl-1-dimethylcarbamoyl-1H-1,2,4-triazole]	416
CN(C)C(=O)n1cnc(S(=O)(=O)N(C)c2ccc(Cl)cc2)n1 [Example 58, 3-[N-(4-chlorophenyl)-N-methylamino]sulfonyl-1-dimethylcarbamoyl-1H-1,2,4-triazole]	15.7
CCN(CC)C(=O)n1cnc(S(=O)(=O)c2c(C)cc(C)cc2C)n1 [Example 34, 3-(2,4,6-Trimethylphenyl)sulfonyl-1-diethylcarbamoyl-1H-1,2,4-triazole]	6630
CN(C)C(=O)n1cnc(S(=O)(=O)CC23CC4CC(CC(C4)C2)C3)n1 [Example 19, 3-(1-Adamantylmethyl)sulfonyl-1-dimethylcarbamoyl-1H-1,2,4-triazole]	233
Cc1noc(C)c1Sc1ncn(C(=O)N(C)C)n1 [Example 46, 3-(3,5-Dimethylisoxazol-4-yl)thio-1-dimethylcarbamoyl-1H-1,2,4-triazole]	1770
CN(C(=O)n1cnc(S(=O)(=O)[C@@H]2C[C@@H]3CC[C@H]2C3)n1)C(C)(C)C (relative stereo) [Example 31, 3-(Endo-norbornan-2-yl)sulfonyl-1-(N-methyl-N-tert-butylcarbamoyl)-1H-1,2,4-triazole]	920
COCCOc1cccc(C)c1Sc1ncn(C(=O)N(C)C)n1 [Example 42, 3-[2-(2-Methoxyethyl)oxy-6-methylphenyl]thio-1-dimethylcarbamoyl-1H-1,2,4-triazole]	551
Cc1nc2ccccn2c1Sc1ncn(C(=O)N(C)C)n1 [Example 50, 3-(2-Methylimidazo[1,2-a]pyridin-3-yl)thio-1-dimethylcarbamoyl-1H-1,2,4-triazole]	5380
CCCN(C)C(=O)n1cnc(S(=O)(=O)[C@@H]2C[C@@H]3CC[C@H]2C3)n1 (relative stereo) [Example 28, 3-(Endo-norbornan-2-yl)sulfonyl-1-(N-methyl-N-propylcarbamoyl)-1H-1,2,4-triazole]	58.4
CN(C)C(=O)n1cnc(S(=O)(=O)N2C3CCCC2CC3)n1 [Example 55, 3-(8-Azabicyclo[3.2.1]octan-8-yl)sulfonyl-1-dimethylcarbamoyl-1H-1,2,4-triazole]	96.1
CN(C)C(=O)n1cnc(S(=O)(=O)CC(C)(C)C)n1 [Example 21, 3-(2-Dimethylpropyl)sulfonyl-1-dimethylcarbamoyl-1H-1,2,4-triazole]	688
CN(C)C(=O)n1cnc(SC(c2ccc(F)cc2)c2ccc(F)cc2)n1 [Example 8, 3-[Bis(4-fluorophenyl)methyl]thio-1-dimethylcarbamoyl-1H-1,2,4-triazole]	3360
Cc1cc(C)c([S+]([O-])c2ncn(C(=O)N(C)C)n2)c(C)c1 (stereo not drawn) [Example 39, 3-(2,4,6-Trimethylphenyl)sulfinyl-1-dimethylcarbamoyl-1H-1,2,4-triazole]	22.8
CN(C)C(=O)n1cnc(S(=O)(=O)C(c2ccc(F)cc2)c2ccc(F)cc2)n1 [Example 9, 3-[Bis(4-fluorophenyl)methyl]sulfonyl-1-dimethylcarbamoyl-1H-1,2,4-triazole]	219
Cc1cc(C)c(Sc2ncn(C(=O)N(C)C)n2)c(C)c1 [Example 32, 3-(2,4,6-Trimethylphenyl)thio-1-dimethylcarbamoyl-1H-1,2,4-triazole]	3690
CCN(C)C(=O)n1cnc(S(=O)(=O)[C@@H]2C[C@@H]3CC[C@H]2C3)n1 (relative stereo) [Example 24, 3-(Endo-norbornan-2-yl)sulfonyl-1-(N-methyl-N-ethylcarbamoyl)-1H-1,2,4-triazole]	21.5
CCN(CC)C(=O)n1cnc(S(=O)(=O)Cc2ccccc2)n1 [Example 3, 3-Benzylsulfonyl-1-diethylcarbamoyl-1H-1,2,4-triazole]	784
